According to patent US8945540B2, “Compositions for enhancing the antibacterial activity of myeloperoxidase and methods of use thereof” (Exoxemis, Inc., priority 2008, dated 2015):
Like-named read-outs stand apart in the source and are kept apart here.

What was measured:
Staphylococcus aureus [1] = assay: Control: microbicidal activity of the amino acid or analogue alone (no glucose, MPO, glucose oxidase) in the presence of blood; assay type: cell-based; conditions: for log reduction at 5000 µM: Staphylococcus aureus, 1 h, read-out: Log Reduction 60 min
Text: As a control to determine the microbicidal activity of the amino acids alone, the foregoing procedure was followed without replication, except in the absence of glucose, MPO, and glucose oxidase.

Staphylococcus aureus [2] = assay: Microbicidal activity of the myeloperoxidase system (p-MPO, glucose oxidase, glucose) with amino acids in the presence of blood, CFU plate counts; synergy determination from these CFU; assay type: cell-based; conditions: for Average Viability CFU/ml 50 min / Log Reduction 50 min: MPO 4.7 U/ml, GO 4.2 U/ml
Protocol: Bacterial suspensions, specifically Staphylococcus aureus in this example, were prepared by the shake flask method to achieve late log to early stationary phase growth. Bacteria were grown 24 hours in trypticase soy broth (TSB) at 35° C. The cultures were centrifuged at 4,000 rpm for 10 minutes and the supernatants removed. The pellet was collected and washed twice with sterile 0.9% normal saline (NS). The washed microorganisms were suspended and diluted with normal saline to a 3 McFarland standard, i.e., approximately 10^9 bacteria colony forming units (CFU) per mL. Actual colony counts are confirmed by serial dilutions (10^−1 to 10^−5 or 10^−6) plated on TSA and incubated overnight at 35° C. To obtain an approximate final working target inoculum of 10^7 CFU/mL, 15 microliters of organisms per mL of final reaction mixture are used.
Glucose oxidase (GO) from Aspergillus Niger was purchased from Biozyme, Inc., UK, Cat #GO3A, 270 U/mg). Porcine Myeloperoxidase (p-MPO) (Exoxemis, Inc., Little Rock, Ark. U.S.A., 375 U/mg). Sterile stock solutions of D-glucose and sodium chloride were prepared and used at a final concentration of 150 mM each. L-Lysine hydrochloride (Spectrum Chemical Cat #L1142) was prepared as a 100 mM stock solution. Catalase (Sigma, Cat #C-40) was prepared as a 1% stock solution in sterile 0.9% normal saline. Blood was collected by venipuncture and used as whole blood within the same day.
Staphylococcus aureus were used to give a final target concentration of 2-3×10^7 CFU (7.4 log 10) per mL and venous whole blood was used to give a final concentration of 3%. Glucose was added to the reaction mixtures to a final concentration of 150 mM, which initiated the microbicidal reaction. The final volume of the reaction mixtures was 1 mL. The reactions were allowed to run from 30 minutes to 2 hours, as needed, at room temperature or at 37° C. in a dry bath. At the specified time points the reaction mixtures were treated with 100 microliters of a catalase solution, containing a minimum of 100 units/μL, to consume remaining peroxide and terminate the oxidative killing. Serial dilution plate counts were performed from the contents of each vial in sterile saline and inoculated onto trypticase soy agar (TSA) for quantitative culture. Plates were then incubated at 37° C. and counts taken at 24 hours. […] The results are shown in Table 1, as the average of 2 replicates.
The amino acids alone, in the absence of MPO were tested to rule out their microbicidal activity. The results are shown in Table 2 to Table 6, as the average of 2 replicates.
The amino acid analogues alone, in the absence of MPO, were tested to rule out their microbicidal activity. […]
The effect of two-way combinations of individual amino acids with L-isoleucine, as potential enhancing agents, for MPO microbicidal action in the presence of blood, was therefore examined by following the procedure of Example 5.
The Actual CFU observed for the pair is then divided by the Predicted CFU and multiplied by 100 to calculate the % of Predicted value. This value is then to be compared to the threshold value, discussed in the next section, to determine whether the pair are synergistic, antagonistic, or additive.
Calculation of appropriate threshold values for determination of synergism and antagonism was based upon the variability of replicated CFU survivor measures.

[3] = amino acid alone 5 mM, MPO 0, GO 0, no glucose, blood, without replication
[4] = MPO 100 μg/mL, AA 20 mM, 30 min
[5] = MPO 100 μg/mL, AA 20 mM, 60 min
[6] = Table 5, amino acid 5 mM (none: 0 mM), MPO 38 U/ml, GO 33.3 U/ml, blood
[7] = Table 11, single amino acid 2.5 mM, in the presence of blood, 50 min
[8] = Table 19, amino acid (racemic, L- or D-form) 2.5 mM, 50 min
[9] = single amino acid 2.5 mM, blood
[10] = Table 4, amino acid 5 mM (none: 0 mM), MPO 38 U/ml, GO 33.3 U/ml, blood
[11] = Table 13, single amino acid 2.5 mM, in the presence of blood, 50 min
[12] = Table 14, single amino acid 2.5 mM, in the presence of blood, 50 min
[13] = Table 10, single amino acid 2.5 mM, in the presence of blood, 50 min
[14] = Table 3, amino acid 5 mM (none: 0 mM), MPO 38 U/ml, GO 33.3 U/ml, blood

SMILES	log reduction at 5000 µM (Staphylococcus aureus [1]; [3])	Average Viability CFU/ml 60 min (Staphylococcus aureus [1]; [3])	Log 10 (CFU + 1) Survivors (Staphylococcus aureus [2]; MPO 25 μg/mL, AA 5 mM, 30 min)	Log 10 (CFU + 1) Survivors (Staphylococcus aureus [2]; MPO 25 μg/mL, AA 5 mM, 60 min)	Log 10 (CFU + 1) Survivors (Staphylococcus aureus [2]; MPO 25 μg/mL, AA […], 30 min)	Log 10 (CFU + 1) Survivors (Staphylococcus aureus [2]; MPO 25 μg/mL, AA […], 60 min)	Log 10 (CFU + 1) Survivors (Staphylococcus aureus [2]; MPO 100 μg/mL, AA 5 mM, 30 min)	Log 10 (CFU + 1) Survivors (Staphylococcus aureus [2]; MPO 100 μg/mL, AA 5 mM, 60 min)	Log 10 (CFU + 1) Survivors (Staphylococcus aureus [2]; [4])	Log 10 (CFU + 1) Survivors (Staphylococcus aureus [2]; [5])	Average Viability CFU/ml 60 min (Staphylococcus aureus [2]; [6])	Log Reduction 60 min (Staphylococcus aureus [2]; [6])	Average Viability CFU/ml 50 min (Staphylococcus aureus [2]; [7])	Log Reduction 50 min (Staphylococcus aureus [2]; [7])	Average Viability CFU/ml 50 min (Staphylococcus aureus [2]; [8])	Log Reduction 50 min (Staphylococcus aureus [2]; [8])	Average Viability CFU/ml 60 min (Staphylococcus aureus [2]; [10])	Log Reduction 60 min (Staphylococcus aureus [2]; [10])	other results
CC[C@@H](C)[C@@H](N)C(=O)O [D-Isoleucine]	0.1	21300000 CFU/ml	0.0	0.0	6.0	1.1	0.0	0.0	0.0	0.0	0 CFU/ml	7.4	196000 CFU/ml	2.1	196000 CFU/ml	2.1			Average Viability CFU/ml 50 min (Staphylococcus aureus [2]; [9]): 196000 CFU/ml; Log Reduction 50 min (Staphylococcus aureus [2]; [9]): 2.1; CFU survivors, amino acid acting separately (Staphylococcus aureus [2]; standard conditions of Example 5 (2.5 μmol/mL; MPO 4.7 U/mL; GO 4.2 U/mL)): 196000 CFU
CC(C)C[C@@H](N)C(=O)O [D-Leucine]	0	24400000 CFU/ml	3.8	2.2	6.7	2.1	2.7	2.0	1.8	1.9			313000 CFU/ml	1.9	215000 CFU/ml	2.1	66550 CFU/ml	2.6	Average Viability CFU/ml 50 min (Staphylococcus aureus [2]; [11]): 119000 CFU/ml; Log Reduction 50 min (Staphylococcus aureus [2]; [11]): 2.3; Average Viability CFU/ml 50 min (Staphylococcus aureus [2]; [12]): 163500 CFU/ml; Log Reduction 50 min (Staphylococcus aureus [2]; [12]): 2.2
NCCCC[C@@H](N)C(=O)O [D-Lysine]		25100000 CFU/ml															5050000 CFU/ml	0.7	log reduction at 5000 µM (Staphylococcus aureus [1]): 0
CSCC[C@@H](N)C(=O)O [D-Methionine]	0.1	21100000 CFU/ml									9400000 CFU/ml	0.4							
N[C@H](Cc1ccccc1)C(=O)O [D-Phenylalanine]	0	24200000 CFU/ml	5.1	0.0	7.2	4.9	0.0	0.0	0.0	0.0	0 CFU/ml	7.4	9300000 CFU/ml	0.5	8700000 CFU/ml	0.5			Average Viability CFU/ml 50 min (Staphylococcus aureus [2]; [13]): 7950000 CFU/ml; Log Reduction 50 min (Staphylococcus aureus [2]; [13]): 0.5; Average Viability CFU/ml 50 min (Staphylococcus aureus [2]; [11]): 8850000 CFU/ml; Log Reduction 50 min (Staphylococcus aureus [2]; [11]): 0.4; Average Viability CFU/ml 50 min (Staphylococcus aureus [2]; [12]): 7950000 CFU/ml; Log Reduction 50 min (Staphylococcus aureus [2]; [12]): 0.5
O=C(O)[C@H]1CCCN1 [D-Proline]	0.1	21400000 CFU/ml	6.9	2.4	7.3	3.7	5.7	2.7	4.8	0.0			1890000 CFU/ml	1.2			830 CFU/ml	4.5	
N[C@H](CO)C(=O)O [D-Serine]	0	23100000 CFU/ml	6.8	6.5	6.7	6.0	6.0	0.0	6.0	3.9	0 CFU/ml	7.4	945000 CFU/ml	1.5					
C[C@H](O)[C@@H](N)C(=O)O [D-Threonine]	0	20700000 CFU/ml	7.3	6.8	7.3	6.7	7.1	5.1	7.4	5.0			2020000 CFU/ml	1.1					Average Viability CFU/ml 60 min (Staphylococcus aureus [2]; [14]): 815000 CFU/ml; Log 10 (CFU + 1) Survivors 60 min (Staphylococcus aureus [2]; [14]): 5.9; Log Reduction 60 min (Staphylococcus aureus [2]; [14]): 1.4
N[C@H](Cc1c[nH]c2ccccc12)C(=O)O [D-Tryptophan]		22600000 CFU/ml															19700000 CFU/ml	0.1	log reduction at 5000 µM (Staphylococcus aureus [1]): 0.1
N[C@H](Cc1ccc(O)cc1)C(=O)O [D-Tyrosine]	0	23200000 CFU/ml	6.8	5.9	6.7	7.0	6.7	5.0	5.8	0.0	9400 CFU/ml	3.4							Average Viability CFU/ml 50 min (Staphylococcus aureus [2]; [13]): 1320000 CFU/ml; Log Reduction 50 min (Staphylococcus aureus [2]; [13]): 1.3
CC(C)[C@@H](N)C(=O)O [D-Valine]	0.1	20900000 CFU/ml	4.1	0.0	6.7	0.0	0.0	0.0	0.0	0.0	0 CFU/ml	7.4			630000 CFU/ml	1.6			Average Viability CFU/ml 50 min (Staphylococcus aureus [2]; [13]): 630000 CFU/ml; Log Reduction 50 min (Staphylococcus aureus [2]; [13]): 1.6; Average Viability CFU/ml 50 min (Staphylococcus aureus [2]; [9]): 630000 CFU/ml; Log Reduction 50 min (Staphylococcus aureus [2]; [9]): 1.6
